Assay [1] relates to NGF stimulated pERK1/2 activation in PC-12 cells. In words: Tanezumab / SOS1 inhibitor combination in the NGF stimulated pERK1/2 PC-12 assay. The assay is classed as cell-based, rat. As to the method:
The combined inhibitory effect of a selective, small molecule SOS1 inhibitor and known antibody based NGF inhibitor, Anti-NGF was monitored via an HTRF readout measuring phosphorylation of ERK1/2 by NGF activation. All assays were performed in rat adrenal PC-12 cells (Merck) that had been serum-starved for a period of 24 hours in RPMI-1640 growth medium (Gibco) supplemented with 1% heat-inactivated horse serum (Merck), 0.5% heat-inactivated fetal bovine serum (FBS), 1% penicillin-streptomycin and 2 mM L-Glutamine unless specified otherwise. Reagents from the HTRF commercial kit (Cisbio) were prepared according to the manufacturer's instructions.
PC-12 cells were isolated from routine cellular culture and plated at an appropriate cell density (typically 25,000 cells per well) in 384-well plates for 24 hours under serum-starved conditions. Working preparations of varying Anti-NGF (Abcam) concentrations and a fixed NGF concentration were prepared in serum-starved media and pre-incubated for 30 minutes (37° C./5% CO2). […] A 2-hour incubation at room temperature was performed prior to fluorescence signal being measured in a microplate reader (PHERAstar FSX, BMG Labtech).
Percentage inhibition values were calculated per compound concentration by normalising the sample data to the high and low controls used within each plate (+/−250 ng/mL NGF respectively). […] Response data were then plotted against the molar logarithm for each SOS1 inhibitor compound concentration together with the determined fit results for display purposes. […] The mean percentage inhibition value calculated for both the top and bottom concentration of SOS1 inhibitor compound tested per Anti-NGF:NGF combination was extracted and compared in tabular form across the different Anti-NGF:NGF combinations tested.
The ability of an NGF inhibitor Tanezumab in combination with a SOS1 inhibitor to treat pain was measured in the Inhibition of Nerve Growth Factor (NGF) stimulated phospho-Extracellular Regulated Kinase 1 and 2 (pERK1/2) activation in the PC-12 cell line assay.

Assay [2] in a line: Analgesic effect of SOS1 inhibitor combined with Tanezumab. It counts as in vivo.
Assay [3] deals with knee osteoarthritis pain model. The note with it: rats, 10 mg/kg; cited from earlier work.

For the substance “Tanezumab: an example of an anti-NGF antibody”, the efficacy in assay [1] (Tanezumab 50 nM in combination with SOS1 inhibitor 500 nM) is recorded as around 96%; in assay [1] (Tanezumab alone, 50 nM), 90%; in assay [1] (tanezumab alone, 200 nM), 100%; in assay [3], “shows efficacy”. Besides, the analgesic effect result in assay [2] (0.3 mg/kg Tanezumab in combination with low doses of a SOS1 inhibitor) is given as “significant analgesic effect”. Further, the “increase in analgesia versus dose” value in assay [2] (fixed dose SOS1 inhibitor, varied antibody dose) is “efficacy is dose related”.

The values above are taken from patent publication US20250325572A1, “TREATMENTS FOR PAIN” (Sevenless Therapeutics Limited, priority 2022, published 2025).
